# Measured values from patent publication US12678427B2, “Combination therapy having antioxydant properties” (GENFIT, priority 2019, dated 2026).
# Tested on: Nrf2-ARE-mediated transcription
# Test: ARE Reporter - HepG2 cell line luciferase assay
# Type: cell-based, human
# Details: ARE reporter HepG2 cells, TZ 1 μM, ELA 3 μM, 18 h exposure, significant = fold induction over DMSO above 2 and p<0.05
# Procedure: The ARE Reporter—Hep G2 cell line is designed to monitor Nrf2 antioxidant response pathway. The cell contains a firefly luciferase gene under the control of ARE (antioxidant response element) stably integrated into Hep G2 cells.
# ARE reporter—HepG2 cells (BPS Bioscience, Inc., San Diego, cat #60513) were cultured following manufacturer's instructions. After thawing (BPS thaw medium 1K, cat #60187), cells were cultured in growth-medium (BPS growth medium 1K, cat #79533) and subsequently plated at a density of 40 000 cells per well in a 96-well microplate in 45 μL of assay medium (BPS thaw medium). TZ, ELA and DL-Sulforaphane (Sigma cat #S4441) were dissolved in DMSO and diluted into assay medium. 5 μl of dilution were added on cells to reach a final concentration of 1 μM for TZ and 3 μM for ELA. DL-Sulforaphane was used as a positive control at the dose of 3 μM. After 18 h exposure, luciferase activity was determined. 50 μL of One-Step Luciferase assay system (BPS cat #60690) were added per well and after ~15 min of rocking at room temperature, luminescence was measured using a luminometer.
# Fold induction over DMSO above 2 and with a p-value <0.05 was considered as significant.
compound,measurement,value
O=C(Nc1ncc([N+](=O)[O-])s1)c1ccccc1O [TZ],activation of Nrf2-antioxidant pathway compared to the untreated condition,induces a significant activation
